# Entries after “also recorded” stand apart in the source; their conditions may differ.
# Tests used:
# Hartley's guinea pigs = assay: Adjuvanticity with a water in oil emulsion (comparative assay), ovalbumin antigen; format: in vivo; conditions: 50 μg compound with FIA + ovalbumin
# Description: As previously, the adjuvanticity is estimated from the increase of the antibody level following an antigen injection. In these experiments, ovalbumin is used as antigen. Assays are carried out on Hartley's guinea pigs weighing 350 g. The animals are injected with 0.1 ml in each posterior footpad. Each dose contains 1 mg ovalbumin and either the Freund's complete adjuvant (FCA) or the Freund's incomplete adjuvant (FIA) or this one with the compound of the invention (50 μg). The antibody titer is estimated 21 days after the injection, by passive hemagglutination as indicated above, or by precipitation according to Folin's method.
# A skin test for delayed hypersensitivity is made 18 days after the injection on the same animals. They received 5 μg of ovalbumin by intradermal injection. 48 hours later, the diameter of reaction is measured (in mm).
# Hartley guinea pigs = conditions: for immunogenicity, in words: conclusion from skin tests in guinea pigs; for hypersensitivity reaction, in words: guinea pigs treated with FIA + compound
# Description: For comparison, simultaneous tests were carried out with Freund's complete adjuvant (FCA).
# Hartley guinea pigs weighing 350 g are skin-tested. […] Forty-eight hours after this second injection, the diameter of reaction is measured (in mm).
# The estimation is made as previously described.
# Swiss common stock mice = assay: Toxicity: lethal dose in mice, intravenous injection; format: in vivo; conditions: 300 μg, adrenalectomised mice
# Description: The compound according to the invention has been compared with the lipopolysaccharide (LPS) prepared by the phenol-water procedure from S.enteriditis, with regard to their lethal doses (LD).
# The method used to carry out these experiments is described by Chedid and al. in Ann. N.Y. Acad. Sci. 133:712, 1966. The tests are made on two month old Swiss common stock mice. The assayed products are administered by intravenous injections.
# The compound according to the invention has been compared with the lipopolysaccharide (LPS) prepared by the phenol-water procedure from S.enteriditis with regard to their lethal dose (LD).
# The method used to carry out these experiments is described by Chedid and al. in Ann. N.Y. Acad. Sci. 135:712, 1966. The tests are made on two month old Swiss common stock mice. The assayed products are administered by intravenous injection.
# mice [1] = assay: Adjuvanticity in aqueous solution: antibody levels in mice after BSA plus adjuvant in saline (PHA, ABC); format: in vivo; conditions: for antibody ABC Day 14 / antibody ABC Day 28 / antibody PHA Day 14 / antibody PHA Day 28: primary response; for antibody ABC Day 34 / antibody ABC Day 36 / antibody PHA Day 34 / antibody PHA Day 36: secondary response (BSA recall day 30); for adjuvanticity in aqueous solution (antibody titer), in words: administered in saline with BSA, mice
# Description: In these experiments, the antibody levels in mice are determined following the injection of various compositions. The injected compositions contain bovine serum albumin (BSA) as antigen and the adjuvant compound according to the invention. The mice used as controls received the BSA and lipopolysaccharides. The compositions are injected in solution in saline. The injected dose of BSA is 0.5 mg per mouse, the recall dose (30 days after the first injection) contains 0.1 mg of BSA. Each tested composition is administered to eight mice. At various time intervals following the injection, the mice are bled to check the antibody level.
# The antibody estimation is made either by passive hemagglutination (PHA) using formalinized sheep red blood cells coated with the tested antigen, or according to the method taught by A. A. Hirata and M. W. Brandiss (J. Immunol., 100, 641-648, 1968), or by the so-called antigen binding capacity method as described by P. Minden and S. Farr (Handbook of Exp. Immunol., p. 463, Weir D. M. ed. Blackwell Scientific Pub., Oxford and Edinburgh, 1967). […]
# The antibody estimation is made either by passive hemagglutination (PHA) using formalinized sheep red blood cells coated with the tested antigen, or according to method taught by A. A. Hirata and M. W. Brandiss (J. Immunol., 100, 641-648, 1968), or by the so-called antigen binding capacity method described by P. Minden and S. Farr (Handbook of Exp. Immunol., p. 463, Weir D. M. ed. Blackwell Scientific Pub., Oxford and Edinburgh, 1967).
# mice [2] = assay: Reaction to influenza virus: adjuvanticity with influenza vaccine (hemagglutination inhibition); format: in vivo; conditions: vaccine + adjuvant compound versus vaccine only, vaccine recall after 30 days
# Description: The adjuvanticity of the Mur-NAc-L-Ala-D-Glu-α-NH2 has been studied against the influenza vaccine on mice. The tested animals are injected with the vaccine and the adjuvant compound whereas controls only received the vaccine. Thirty days later, a recall containing only the vaccine is injected.
# It is to be observed that the antibody level is much higher in animals which have received both vaccine and adjuvant compound than in controls. (The measure is made by hemagglutination inhibition following the method proposed by the World Health Organisation Comitee (1953).)
# [3] = 100 μg per mouse + BSA in saline
# [4] = 30 μg per mouse + BSA in saline
# [5] = 300 μg per mouse + BSA in saline
Compound,"immunogenicity, in words (Hartley guinea pigs)","hypersensitivity reaction, in words (Hartley guinea pigs)",survival after injection (Swiss common stock mice),antibody ABC Day 14 (mice [1]; [3]),antibody ABC Day 28 (mice [1]; [3]),antibody PHA Day 14 (mice [1]; [3]),antibody PHA Day 28 (mice [1]; [3]),antibody ABC Day 34 (mice [1]; [3]),antibody ABC Day 36 (mice [1]; [3]),antibody PHA Day 34 (mice [1]; [3]),antibody PHA Day 36 (mice [1]; [3]),"adjuvanticity in aqueous solution (antibody titer), in words (mice [1])",also measured
"CC(=O)N[C@H]1C(O)O[C@H](CO)[C@@H](O)[C@@H]1O[C@H](C)C(=O)N[C@@H](C)C(=O)N[C@H](CCC(=O)O)C(=O)O (stereo partly drawn) [Mur-NAc-L-Ala-D-Glu(OH), 2-(2-acetamido-2-deoxy-3-O-D-glucopyranosyl)-D-propionyl-L-alanyl-D-glutamic acid]",not immunogenic,no hypersensitivity reaction is observed,All mice survived,< 20,80,3,50,320,630,400,"2,130",induces an enhancement of the antibody titer,"antibody titer against ovalbumin, in words (Hartley's guinea pigs): does not induce an increase of the antibody titer; skin test reaction to ovalbumin (delayed hypersensitivity), in words (Hartley's guinea pigs; compared with FCA): light"
"CC(=O)N[C@@H]1[C@@H](O[C@H](C)C(=O)N[C@@H](C)C(=O)N[C@H](CCC(=O)O)C(N)=O)[C@H](O)[C@@H](CO)O[C@H]1O [Mur-NAc-L-Ala-D-Glu-α-NH2, 2-(2-acetamido-2-deoxy-3-O-D-glucopyranosyl)-D-propionyl-L-alanyl-D-α-isoglutamine]",not immunogenic,no hypersensitivity reaction is observed,All the mice survived,< 20,82,< 3,25,270,520,400,2150,induces an enhancement of the antibody titer that can be compared with the one caused by injecting the LPS; also recorded: high antibody titers were observed,"antibody level against influenza vaccine (hemagglutination inhibition), in words (mice [2]): much higher; antibody ABC Day 14 (mice [1]; [4]): < 20; antibody ABC Day 28 (mice [1]; [4]): 75; antibody PHA Day 14 (mice [1]; [4]): 3; antibody PHA Day 28 (mice [1]; [4]): 25; antibody ABC Day 34 (mice [1]; [4]): 210; antibody ABC Day 36 (mice [1]; [4]): 400; antibody PHA Day 34 (mice [1]; [4]): 200; antibody PHA Day 36 (mice [1]; [4]): 800; antibody ABC Day 14 (mice [1]; [5]): < 20; antibody ABC Day 28 (mice [1]; [5]): 50; antibody PHA Day 14 (mice [1]; [5]): < 3; antibody PHA Day 28 (mice [1]; [5]): 25; antibody ABC Day 34 (mice [1]; [5]): 230; antibody ABC Day 36 (mice [1]; [5]): 550; antibody PHA Day 34 (mice [1]; [5]): 200; antibody PHA Day 36 (mice [1]; [5]): 975"

# From US4158052A, “Oil-free adjuvant compositions containing N-acetyl-muramyl-L-alanyl-D-isoglutamine” (priority 1975, dated 1979)
